Assays:
[1] = system: PEX genes (PEX3, PEX16, PMP22); assay: PEX (peroxisomal) gene expression in a human keratocyte cell line / cultured human keratinocytes exposed to PPARγ agonists; assay type: cell-based; settings: for expression of peroxisomal genes (PEX3, PEX16, PMP22): qualitative statement, cultured human keratinocytes
Description: (§1) Quantitative real-time RT-PCR. FAM labeled PCR primers and TaqMan hydrolysis probes for all target genes and 18S rRNA were purchased from Perkin-Elmer Applied Biosystems (Foster City, Calif.). Real-time PCR was performed on an ABI Prism 7700 Sequence Detection System (PE Biosystems) according to the recommendation of the manufacturer. The target gene expression in LPP and control samples was quantitated by the comparative CT method as described in the ABI Prism 7700 Sequence Detection System manual (PE Biosystems).
(§2) Effect of PPARg agonists and antagonists on PEXgenes. Human Hair Follicle Outer Root Sheath Cells (ORS cells) were obtained from ScienCell™ (San Diego, Calif.) and grown in Mesenchymal Stem Cell Medium (MSCM) consisting of 500 ml of basal medium, 25 ml of fetal bovine serum, 5 ml of mesenchymal stem cell growth supplement and 5 ml of penicillin/streptomycin solution. HaCaT cells were cultured in Dulbecco's modified Eagle's medium containing 10% fetal bovine serum under 5% CO2 at 37° C. The different PPAR agonists were added in triplicate in dimethylsulfoxide (<0.1% by volume) for 48 hours to evaluate their effects on PEX gene expression by real-time PCR.

[2] = system: PEX3 gene expression; assay: PEX3 gene expression in cultured outer root sheath (ORS) keratinocytes treated with PPAR agonists, real-time PCR; assay type: cell-based, human; settings: for effect on PEX3 gene expression: cultured outer root sheath keratinocytes
Description: (§3) HaCaT keratinocytes were treated with vehicle alone (0.1% DMSO) or with specific agonists (1 μM and 5 μM in 0.1% DMSO) of PPARγ-Ciglitazone (Cig), Rosiglitazone (Rosi), Pioglitazone (Pio) and Troglitazone (Tro), PPARα-WY-14363 and PPARδ-GW50516. After 48 hours, PEX16 gene expression was measured by real-time PCR.
(§4) We directly assessed the role of PPARγ in modulating peroxisomal gene expression by growing HaCat cells (human keratinocyte cell line) in the presence of PPAR agonists (1 μM and 5 μM concentrations in 0.1% DMSO) and monitoring gene expression by real-time PCR (FIG. 5b). The agonists tested were Ciglitazone (Cig), Rosiglitazone (Rosi), Pioglitazone (Pio) and Troglitazone (Tro) specific for PPARγ, WY-14363 specific for PPARα and GW50516 specific for PPARδ. […] We also examined whether expression of the PEX3 gene is modulated by the PPAR agonist Pioglitazone (Pio) in cultured outer root sheath keratinocytes. Cells were grown in the presence or absence of Pio and PEX3 gene expression was monitored by real-time PCR.
as §1
as §2, with “The different PPAR agonists were added in triplicate in dimethylsulfoxide (<0.1% by volume) for 48 hours to evaluate their effects on PEX gene expression by real-time PCR.” left out

[3] = system: PEX16 gene expression; assay: PEX16 gene expression in HaCaT keratinocytes treated with PPAR agonists, real-time PCR; assay type: cell-based, human; settings: HaCaT cells, 1 μM and 5 μM in 0.1% DMSO, 48 hours
Description: as §3, §4
Quantitative real-time RT-PCR. […] The target gene expression in LPP and control samples was quantitated by the comparative CT method as described in the ABI Prism 7700 Sequence Detection System manual (PE Biosystems). […]

[4] = system: Patients with LLP; assay: Treatment of patients with lichen planopilaris with low dose Actos; assay type: in vivo, human; settings: for inflammatory cells in scalp biopsy histology: one patient, H&E
Description: Patients were treated with Actos (Pioglitazone), a PPARγ agonist that is currently used to treat diabetes. Patients with LLP were given a low dose of Actos, i.e., less than about 15 mg/daily. […] The histology of scalp biopsy of one of the patients before, after one year of treatment, and after two years of treatment are shown in FIGS. 18-20. […] Therefore, PPAR agonist is effective in reducing symptoms.

Cc1c(C)c2c(c(C)c1O)CCC(C)(COc1ccc(CC3SC(=O)NC3=O)cc1)O2 (single isomer, unassigned; (+)) [Troglitazone, (+)-5[[4-[(3,4-dihydro-6-hydroxy-2,5,7,8-tetramethyl-2H-1-benzopyran-2-yl)methoxy]phenyl]methyl]-2,4-thiazolidinedione]
expression of peroxisomal genes (PEX3, PEX16, PMP22) [1]: induce the expression

CC1(COc2ccc(CC3SC(=O)NC3=O)cc2)CCCCC1 (stereo not shown) [Ciglitazone, 5-[4-[(1-methylcyclohexyl)methoxy]benzyl]thiazolidine-2,4-dione]
expression of peroxisomal genes (PEX3, PEX16, PMP22) [1]: induce the expression

Cc1cc(SCc2sc(-c3ccc(C(F)(F)F)cc3)nc2C)ccc1OCC(=O)O [GW50516]
effect on PEX3 gene expression [2]: minimal effect
effect on PEX 16 gene expression [3]: minimal effect

CCc1ccc(CCOc2ccc(CC3SC(=O)NC3=O)cc2)nc1 (stereo not shown) [Pioglitazone, 5-[4-[2-(5-ethylpyridin-2-yl)ethoxyl]benzyl]thiazolidine-2,4-dione]
increase in PEX3 gene expression ([2]; outer root sheath keratinocytes, 1 μM, compared to vehicle alone (0.1% DMSO)): 4 fold
itching, burning and pain associated with lichen planopilaries ([4]; LLP patients, less than about 15 mg/daily, patient-reported): significant decrease
inflammatory cells in scalp biopsy histology ([4]; after 1 year of treatment): Reduction is already seen
inflammatory cells in scalp biopsy histology ([4]; at two years of treatment): complete clearing of inflammatory cells
expression of peroxisomal genes (PEX3, PEX16, PMP22) [1]: induce the expression

CN(CCOc1ccc(CC2SC(=O)NC2=O)cc1)c1ccccn1 (stereo not shown) [Rosiglitazone, 5-[4-[2-(N-methyl-N-(2-pyridyl)amino]ethoxy]benzyl]thiazolidine-2,4-dione]
increase in PEX gene expression ([1]; human keratocyte cell line): three-fold increase
expression of peroxisomal genes (PEX3, PEX16, PMP22) [1]: induces the expression

Cc1cccc(Nc2cc(Cl)nc(SCC(=O)O)n2)c1C [WY-14363]
effect on PEX3 gene expression [2]: minimal effect
effect on PEX 16 gene expression [3]: minimal effect
